Measured values published in ChEMBL document CHEMBL2163242, “Development of anti-coxsackievirus agents targeting 3C protease” (Bioorg Med Chem Lett, 2012).

What was measured:
Genome polyprotein = Genome polyprotein (Coxsackievirus B3 (strain Nancy), UniProt P03313); experiment: Inhibition of Coxsackievirus B3 protease 3c using NMA-EALFQGPPVK-DNP as substrate incubated for 5 mins prior to substrate addition measured after 1 hr by FRET assay
Coxsackievirus B3 [1] = experiment: Antiviral activity against Coxsackievirus B3 H3 infected in HeLa-UVM cells assessed as host cell viability at 1 uM after 6 to 24 hrs by CCK8 assay; format: functional
Coxsackievirus B3 [2] = experiment: Antiviral activity against Coxsackievirus B3 H3 infected in HeLa-UVM cells assessed as host cell viability at 0.5 uM after 6 to 24 hrs by CCK8 assay; format: functional
[3] = molecular target: Genome polyprotein (Coxsackievirus B3 (strain Nancy)) (UniProt P03313); experiment: Inhibition of Coxsackievirus B3 protease 3c using NMA-EALFQGPPVK-DNP as substrate at 10 uM incubated for 5 mins prior to substrate addition measured after 1 hr by FRET assay
[4] = Aqueous solubility of the compound by HPLC analysis; format: physicochemical; settings: buffer

Sequence of Genome polyprotein (P03313 1541-1723 limits assumed): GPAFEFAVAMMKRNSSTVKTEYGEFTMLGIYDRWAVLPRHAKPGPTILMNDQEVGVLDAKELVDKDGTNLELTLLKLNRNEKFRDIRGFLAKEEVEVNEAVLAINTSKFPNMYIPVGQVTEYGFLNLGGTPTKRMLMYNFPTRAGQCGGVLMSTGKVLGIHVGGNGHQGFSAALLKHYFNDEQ
Sequence of Genome polyprotein (Coxsackievirus B3 (strain Nancy)) (P03313 whole entry): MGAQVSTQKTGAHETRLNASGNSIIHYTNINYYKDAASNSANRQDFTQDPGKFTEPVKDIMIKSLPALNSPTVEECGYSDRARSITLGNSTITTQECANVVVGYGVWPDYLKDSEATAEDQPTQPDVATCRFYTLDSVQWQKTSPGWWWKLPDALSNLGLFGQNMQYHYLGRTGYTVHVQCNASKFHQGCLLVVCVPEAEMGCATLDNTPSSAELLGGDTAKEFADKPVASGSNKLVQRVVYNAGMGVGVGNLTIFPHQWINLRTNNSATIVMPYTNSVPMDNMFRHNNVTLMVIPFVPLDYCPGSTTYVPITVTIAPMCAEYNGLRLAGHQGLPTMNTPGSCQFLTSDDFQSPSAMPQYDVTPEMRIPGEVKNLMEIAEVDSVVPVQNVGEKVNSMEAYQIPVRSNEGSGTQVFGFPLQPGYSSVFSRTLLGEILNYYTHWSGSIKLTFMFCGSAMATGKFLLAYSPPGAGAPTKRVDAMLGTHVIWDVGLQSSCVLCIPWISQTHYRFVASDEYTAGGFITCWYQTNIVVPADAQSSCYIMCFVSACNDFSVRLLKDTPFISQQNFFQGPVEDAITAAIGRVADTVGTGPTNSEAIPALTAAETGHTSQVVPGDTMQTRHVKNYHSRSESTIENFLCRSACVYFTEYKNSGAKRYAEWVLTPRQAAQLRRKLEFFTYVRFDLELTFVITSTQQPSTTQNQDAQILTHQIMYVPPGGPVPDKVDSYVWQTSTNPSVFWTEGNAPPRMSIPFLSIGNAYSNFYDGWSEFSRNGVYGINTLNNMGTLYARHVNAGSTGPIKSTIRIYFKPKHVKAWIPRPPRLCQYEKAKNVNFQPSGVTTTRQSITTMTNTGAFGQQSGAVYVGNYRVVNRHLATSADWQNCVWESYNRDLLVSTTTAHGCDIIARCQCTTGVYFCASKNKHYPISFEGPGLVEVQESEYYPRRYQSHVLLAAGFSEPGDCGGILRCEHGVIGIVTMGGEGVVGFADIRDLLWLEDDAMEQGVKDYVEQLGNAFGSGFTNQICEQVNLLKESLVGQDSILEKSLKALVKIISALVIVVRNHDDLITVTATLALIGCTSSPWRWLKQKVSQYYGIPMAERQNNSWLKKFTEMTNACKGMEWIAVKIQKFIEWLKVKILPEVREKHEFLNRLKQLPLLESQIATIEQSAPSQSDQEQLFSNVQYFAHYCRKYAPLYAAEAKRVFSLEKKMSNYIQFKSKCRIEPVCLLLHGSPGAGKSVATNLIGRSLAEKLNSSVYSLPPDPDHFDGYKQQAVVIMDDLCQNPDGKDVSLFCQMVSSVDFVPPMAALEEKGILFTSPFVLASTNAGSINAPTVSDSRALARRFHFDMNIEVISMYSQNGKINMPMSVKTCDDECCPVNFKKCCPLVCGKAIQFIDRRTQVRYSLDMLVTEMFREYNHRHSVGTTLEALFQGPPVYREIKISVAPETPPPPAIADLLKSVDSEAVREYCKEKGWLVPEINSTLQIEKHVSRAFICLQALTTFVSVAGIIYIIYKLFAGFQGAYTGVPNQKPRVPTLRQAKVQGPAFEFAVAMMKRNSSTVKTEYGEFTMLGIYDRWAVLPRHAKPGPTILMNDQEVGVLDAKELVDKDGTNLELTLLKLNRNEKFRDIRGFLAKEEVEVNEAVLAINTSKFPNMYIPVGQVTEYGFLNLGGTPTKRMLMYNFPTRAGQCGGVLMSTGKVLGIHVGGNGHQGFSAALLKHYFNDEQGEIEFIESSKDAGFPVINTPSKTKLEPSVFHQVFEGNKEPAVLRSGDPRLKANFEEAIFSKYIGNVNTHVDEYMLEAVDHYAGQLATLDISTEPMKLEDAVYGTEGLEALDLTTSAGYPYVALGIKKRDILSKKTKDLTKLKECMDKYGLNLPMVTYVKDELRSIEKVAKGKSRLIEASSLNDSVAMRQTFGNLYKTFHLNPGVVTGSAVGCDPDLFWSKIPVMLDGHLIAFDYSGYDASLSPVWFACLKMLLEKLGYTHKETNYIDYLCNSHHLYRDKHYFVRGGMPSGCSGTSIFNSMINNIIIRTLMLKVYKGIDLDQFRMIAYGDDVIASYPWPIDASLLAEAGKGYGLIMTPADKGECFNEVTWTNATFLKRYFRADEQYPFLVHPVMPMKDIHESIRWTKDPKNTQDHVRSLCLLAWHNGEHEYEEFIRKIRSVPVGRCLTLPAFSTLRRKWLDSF

inhibition [3]	Compound	IC50 (Genome polyprotein)	Activity (Coxsackievirus B3 [1])	Activity (Coxsackievirus B3 [2])	solubility [4]
–	Cc1cc(C(=O)N[C@H](C(=O)N[C@@H](Cc2ccc(F)cc2)C(=O)N[C@@H](/C=C/C(=O)OCc2cnc3ccccc3c2)CCC(N)=O)C(C)C)no1	250 nM	50%	50%	–
–	Cc1cc(C(=O)N[C@H](C(=O)N[C@@H](Cc2ccc(F)cc2)C(=O)N[C@@H](/C=C/C(=O)OCc2cn3c(C)cccc3n2)CCC(N)=O)C(C)C)no1	160 nM	50%	–	–
–	Cc1cc(C(=O)N[C@H](C(=O)N[C@@H](Cc2ccc(F)cc2)C(=O)N[C@@H](/C=C/C(=O)OCc2nc3ccccc3[nH]2)CCC(N)=O)C(C)C)no1	240 nM	50%	–	–
–	Cc1cc(C(=O)N[C@H](C(=O)N[C@@H](Cc2ccc(F)cc2)C(=O)N[C@@H](/C=C/C(=O)OCc2nc3cc(Cl)ccc3[nH]2)CCC(N)=O)C(C)C)no1	650 nM	50%	–	–
–	Cc1cc(C(=O)N[C@H](C(=O)N[C@@H](Cc2ccc(F)cc2)C(=O)N[C@@H](/C=C/C(=O)OCc2cccc3ncccc23)CCC(N)=O)C(C)C)no1	280 nM	50%	–	–
–	Cc1cc(C(=O)N[C@H](C(=O)N[C@@H](Cc2ccc(F)cc2)C(=O)N[C@@H](/C=C/C(=O)OCc2ccnc3ccccc23)CCC(N)=O)C(C)C)no1	130 nM	50%	50%	–
33.5%	Cc1cc(C(=O)N[C@H](C(=O)N[C@@H](Cc2ccc(F)cc2)C(=O)O)C(C)C)no1	–	–	–	–
–	Cc1cc(C(=O)N[C@H](C(=O)N[C@@H](Cc2ccc(F)cc2)C(=O)N[C@@H](/C=C/C(=O)OCc2ccc3[nH]ncc3c2)CCC(N)=O)C(C)C)no1	180 nM	50%	–	–
–	Cc1cc(C(=O)N[C@H](C(=O)N[C@@H](Cc2ccc(F)cc2)C(=O)N[C@@H](/C=C/C(=O)OCc2ccc3cn[nH]c3c2)CCC(N)=O)C(C)C)no1	390 nM	50%	–	–
–	Cc1cc(C(=O)N[C@H](C(=O)N[C@@H](Cc2ccc(F)cc2)C(=O)N[C@@H](/C=C/C(=O)OCc2nc(-c3ccncc3)no2)CCC(N)=O)C(C)C)no1	650 nM	50%	–	–
–	Cc1cc(C(=O)N[C@H](C(=O)N[C@@H](Cc2ccc(F)cc2)C(=O)N[C@@H](/C=C/C(=O)OCc2ccc3cnccc3c2)CCC(N)=O)C(C)C)no1	240 nM	50%	–	–
–	Cc1cc(C(=O)N[C@H](C(=O)N[C@@H](Cc2ccc(F)cc2)C(=O)N[C@@H](/C=C/C(=O)OCc2ccc3ccccc3c2)CCC(N)=O)C(C)C)no1	410 nM	50%	–	–
–	Cc1cc(C(=O)N[C@H](C(=O)N[C@@H](Cc2ccc(F)cc2)C(=O)N[C@@H](/C=C/C(=O)OCc2ccc3nc[nH]c3c2)CCC(N)=O)C(C)C)no1	470 nM	50%	–	–
–	Cc1cc(C(=O)N[C@H](C(=O)N[C@@H](Cc2ccc(F)cc2)C(=O)N[C@@H](/C=C/C(=O)OCc2cn3cccc(C)c3n2)CCC(N)=O)C(C)C)no1	170 nM	50%	–	–
–	Cc1cc(C(=O)N[C@H](C(=O)N[C@@H](Cc2ccc(F)cc2)C(=O)N[C@@H](/C=C/C(=O)OCc2ccc3[nH]ncc3c2)CCC(N)=O)C(C)C)no1.Cl	–	–	–	soluble
–	Cc1cc(C(=O)N[C@H](C(=O)N[C@@H](Cc2ccc(F)cc2)C(=O)N[C@@H](/C=C/C(=O)OCc2cccc3cnccc23)CCC(N)=O)C(C)C)no1	270 nM	50%	–	–
